Key:
[1] = biological target: T1, SPNS2 (Homo sapiens, UniProt Q8IVW8); assay: cryo-EM structure at […] Å (detergent modeled as dodecyl glucoside; mixture of DDM and S1P not excluded); assay type: binding; parameters: full-length human SPNS2; residues 1-99, 287-296 and 352-358 not resolved; with nanobody NbD12
T1 sequence (Q8IVW8 1-549): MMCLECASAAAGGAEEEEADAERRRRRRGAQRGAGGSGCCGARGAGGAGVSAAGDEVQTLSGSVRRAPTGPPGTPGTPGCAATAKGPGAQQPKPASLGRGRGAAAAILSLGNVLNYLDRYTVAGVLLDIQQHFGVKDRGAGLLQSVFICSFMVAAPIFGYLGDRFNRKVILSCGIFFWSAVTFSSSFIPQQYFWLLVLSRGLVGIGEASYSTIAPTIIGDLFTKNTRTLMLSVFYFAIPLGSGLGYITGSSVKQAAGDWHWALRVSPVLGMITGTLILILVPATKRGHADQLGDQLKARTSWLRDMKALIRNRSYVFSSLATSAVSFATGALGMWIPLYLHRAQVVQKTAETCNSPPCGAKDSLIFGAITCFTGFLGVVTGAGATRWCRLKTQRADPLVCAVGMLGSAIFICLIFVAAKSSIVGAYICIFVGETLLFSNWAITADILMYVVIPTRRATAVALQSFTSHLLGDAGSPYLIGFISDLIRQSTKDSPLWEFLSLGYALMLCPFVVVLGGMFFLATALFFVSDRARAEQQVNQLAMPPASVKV

[2] = biological target: T1, SPNS2; assay: S1PR3-coupled S1P export assay in CHO cells; assay type: cell-based; parameters: untagged wild type SPNS2 overexpressed with SphK1 in CHO-K1 cells
[3] = biological target: T1, SPNS2; assay: S1PR3-coupled S1P export assay; R200S mutant inactive; assay type: cell-based; parameters: untagged wild type SPNS2 overexpressed with SphK1 in CHO-K1 cells
[4] = biological target: T2, Biotinylated SPNS2 (full-length, codon-optimized, C-terminal AVI and Flag tag) (Homo sapiens, UniProt Q8IVW8, biotin (AVI tag, BirA co-expressed)); assay: SPR; Biacore 8K; biotinylated SPNS2 immobilised on SA sensor chip (600 to 800 RU); nanobody series 0 to 1 or 10 uM injected; 20 mM HEPES pH 7.5, 150 mM NaCl, 0.026% DDM, 0.01% fatty acid free BSA; 25 °C; 1:1 interaction model; conditions: both partners purified
T2 construct: SPNS2, full-length codon-optimized, in the in-house baculovirus vector pD-INS3; The species is not repeated in the paragraph on this construct; also called Biotinylated SPNS2 protein; source: Sf9 cells co-infected with SPNS2 and BirA baculovirus, biotin in the medium; purified in DDM or LMNG (Anti-Flag M2 resin, SEC); not shown: AVI, C-terminal, kept

CCCCCCCCCCCCO[C@@H]1O[C@H](CO)[C@@H](O[C@H]2O[C@H](CO)[C@@H](O)[C@H](O)[C@H]2O)[C@H](O)[C@H]1O [n-dodecyl-β-D-maltopyranoside]
cryo-EM structure at 3.7 Å (detergent modeled as dodecyl glucoside); mixture of D [1]: the unknown density fits the acyl chain and first glucose of n-dodecyl-β-D-maltopyranoside

CCCCCCCCCCc1ccc2nc(NC[C@H]3CCNC3)oc2c1 [33p, 6-decyl-N-[[(3S)-pyrrolidin-3-yl]methyl]-1,3-benzoxazol-2-amine]
IC50 [2]: 1900 ± 320 nM

CCCCCCCCCCCCC/C=C/[C@@H](O)[C@@H](N)COP(=O)(O)O [Sphingosine-1-phosphate]
S1PR3-coupled S1P export assay; R200S mutant inactive [3]: Validating this assay, the SPNS2 mutation R200S shows no S1P transport activity

B1: Nanobody D12 (NbD12) (VHH)
VHH: QVQLVESGGGLVQAGGSLRLSCAASGRLLSWYDMAWFRQAPGKEREFVAAVTSTGAGTHYVDSVKGRFTISRVNAKNTMYLQMNSLKPEDTAVYYCAAANTRLTALSLRTTTGSWAYWGKGTPVTVSS
notes: Raised by immunising alpacas with SPNS2 and selected by phage display; Subcloned into pBXNP (Addgene 110098) modified to carry a 1x FLAG tag upstream of the 10x His tag; The FLAG tag is used for capture and detection in the co-IP and the immunofluorescence; source: E. coli MC1061 periplasm, purified
Kd [4]: 7.75 nM

— paper PMC11739509, “Transport and inhibition of the sphingosine-1-phosphate exporter SPNS2” (Nature Communications, 2025)
